Measured values from patent publication US6369003B1, “Process and composition for soil improvement by reducing microbially formed ethylene in the soil” (BASF Aktiengesellschaft, priority 1994, dated 2002).
Where two headings read alike, the source gives them in different places.

Assays:
pea variety Sparkle = conditions: nodule formation reduced by provision of light in the root area; Lee and La Rue; cited from earlier work
[1] = tested on: pea varieties Sparkle and Rondo; conditions: Lee and La Rue, cited from earlier work
parent strain Sparkle = conditions: Fearn and La Rue 1991; cited from earlier work
mutant EZ (Sym5) of peas = conditions: severely reduced nodule formation of the mutant; Fearn and La Rue 1991; cited from earlier work
[2] = tested on: Soybean plants (Delta Pine 415); assay: Soybeans test 3c: root nodules and total N, greenhouse; type: in vivo, Glycine max; conditions: for Nodules: untreated 46
Description: In these tests various types of non-sterile soils were used. The cultivation of the plants was carried out under greenhouse or climatic chamber conditions. The active compounds according to the invention were applied uniformly distributed over the soil surface in an aqueous preparation after the emergence of the respective test plants. The supply of water for the plants was carrried out using the same technique, always paying attention to uniform moistness of the soil. In the case of the cultivation of legumes, defined amounts of species-specific Rhizobia were admixed to the soil. In some cases inoculation was also carried out by seed treatment.
a) Soybean plants (Delta Pine 415) were cultivated under greenhouse conditions in low N Limburgerhof soil in plastic pots (500 ml) and watered from above as required. A few days after emergence the plants were thinned out to 5 plants per pot.
In 8 pots in each case per test member an aqueous active compound solution of 2.3.1.3 was applied by watering. 16 pots remained untreated in each case.
c) Test procedure as in 3 a)

soybean plants = conditions: even at distinctly higher ethylene administration; Lee and La Rue; cited from earlier work
white sweetclover = conditions: 0.07 μl/l of ethylene gas/l of air; Lee and La Rue; cited from earlier work
[3] = 0.030 mg of a.s./pot; procedure as in 3 a)
[4] = 0.300 mg of a.s./pot; procedure as in 3 a)

Row | Structure (SMILES) | nodulation (parent strain Sparkle) | nodule formation (mutant EZ (Sym5) of peas) | Total N (shoots + root) [2, 3] | Nodules [2, 3] | Total N (shoots + root) [2, 4] | Nodules [2, 4] | other results
1 | O=S(=O)([O-])[O-].[Ag+].[Ag+] [Ag2SO4] | not affected | partially restored | – | – | – | – | nodule formation (pea variety Sparkle): reverse the reduced nodule formation by light; nodule formation ([1]; peas (Sparkle), in the presence of ethylene): normal nodule formation could be restored
2 | O=[N+]([O-])[O-].O=[N+]([O-])[O-].[Co+2] [Co(NO3)2] | not affected | partially restored | – | – | – | – | –
3 | CCCCCCOC(=O)CON=C(C)C [active compound 2.3.1.4] | – | – | 103 % of control | 55 number/pot | 110 % of control | 66 number/pot | –
4 | CC(C)OCOC(=O)CON=C1CCCCC1 [active compound 2.3.1.5] | – | – | 104 % of control | 70 number/pot | 107 % of control | 61 number/pot | –
5 | C=C [ethylene] | – | – | – | – | – | – | nodulation (soybean plants): no significant effect on nodulation; nodule formation ([1]; 0.07 μl/l of ethylene gas/l of air): severe reduction in nodule formation; nodule formation (white sweetclover): severe reduction in nodule formation
